According to patent US20260144875A1, “COMPOSITIONS AND METHODS FOR CROSSLINKING STRUCTURAL PROTEINS” (ADS Therapeutics LLC, priority 2022, published 2026):
In brackets after ≈: the same amount, converted by molar mass.

Assays:
[1] = Impurities from riboflavin tetrabutyrate in aqueous solution; type: physicochemical; conditions: PBS
Protocol: The impurities present in PBS solutions, with or without 10% hydroxy-propyl-beta-cyclodextrin (HP-β-CD) as solubilizer, at varying pH, with riboflavin tetrabutyrate (RTB) was investigated. Using similar sample analysis methods described in Examples 1a-1c, the impurities were determined.

porcine corneas = experiment: Ex vivo RTB-UVA crosslinking, static stress-strain, without de-epithelialization; conditions: intact porcine eyes, corneas not de-epithelialized; RTB formulations in MCT or F6H8; UVA radiation
Protocol: Starting 5 minutes before the treatment, 0.1% riboflavin tetrabutyrate (RTB) photosensitizer solution (10 mg riboflavin tetrabutyrate in 10 mL MCT or F6H8 or a combination thereof) is dropped on the treated strips and MCT or F6H8 or combination solution is dropped on the control strips at 5-minute intervals. Ultraviolet A irradiation (370 nm) is applied using 2 double UVA diodes (Roithner Lasertechnik) with an irradiance of 3 mW/cm2 at a distance of 1.0 cm from the cornea for 30 minutes. This is equal to a dose of 5.4 J/cm^2. The parameters of exposure are chosen according to the treatment procedure used in keratoconus patients. Three 1.3 V accumulators are used as a power generator. […]
The porcine corneal strips are clamped horizontally at a distance of 8.0 mm between the jaws of a commercially available microcomputer-controlled biomaterial tester (Minimat, Rheometric Scientific GmbH. To include the physiological stress range, a prestress of 5×10^3 Pa (1 Pa=1 N/m2) is used, which requires a force of 20 mN in porcine corneas. The strain is then increased linearly with a velocity of 1.5 mm min-1, and the stress is measured up to 2×10^5 Pa. The stress-strain values are fitted by an exponential function σ=A exp (BX) using the SPSS-calculation program (SPSS GmbH Software, Munich). […]

[2] = Saturated aqueous solubility of RTB in PBS with or without HP-β-CD, HPLC; type: physicochemical
Protocol: Solubility of riboflavin tetrabutyrate (RTB) was tested in PBS solution, with or without 10% hydroxypropyl-beta-cyclodextrin (HP-β-CD) as solubilizer, at varying pH. For each formulation, 5 mg of RTB was added to 5 mL of pH-adjusted PBS containing 10% HP-β-CD at 25° C., and mixed well. Solubility was analyzed as in Example 1a.

[3] = Impurities from riboflavin tetrabutyrate in organic solvents; type: physicochemical; conditions: 25° C.; for Impur. 0 hr / Impur. 1 Month / Impur. 14 Days: RTB
Protocol: The impurities present in MCT, F6H8, or combinations, with riboflavin tetrabutyrate (RTB), at 25° C. was investigated. Using similar sample analysis methods described in Examples 1a-1c, the impurities were determined.

[4] = Sample YA1, HP-β-CD 10%, pH 5.0
[5] = Sample YA2, HP-β-CD 10%, pH 6.0
[6] = Sample YA3, HP-β-CD 10%, pH 7.0
[7] = Sample YA4, without HP-β-CD, pH 5.0
[8] = Sample YA5, without HP-β-CD, pH 6.0
[9] = Sample YA6, without HP-β-CD, pH 7.0
[10] = Sample YB1, 0.2%, MCT 100%, F6H8 0%
[11] = Sample YB2, 0.1%, MCT 70%, F6H8 30%
[12] = Sample YB3, 0.1%, MCT 50%, F6H8 50%

## CCCC(=O)OC[C@@H](OC(=O)CCC)[C@@H](OC(=O)CCC)[C@H](Cn1c2nc(=O)[nH]c(=O)c-2nc2cc(C)c(C)cc21)OC(=O)CCC [RTB, (2R,3S,4S)-5-(7,8-dimethyl-2,4-dioxo-3,4-dihydrobenzo[g]pteridin-10(2H)-yl) pentane-1,2,3,4-tetrayl tetrabutyrate]
[1]; [4]
  Other Impurities: 2.94%
  Riboflavin: 0%
  Riboflavin Tetrabutyrate: 96.28%
[1]; [5]
  Other Impurities: 10.65%
  Riboflavin: 2.45%
  Riboflavin Tetrabutyrate: 87.2%
[1]; [6]
  Other Impurities: 9.39%
  Riboflavin: 2.03%
  Riboflavin Tetrabutyrate: 88.58%
[1]; [7]
  Other Impurities: 22.54%
  Riboflavin: 7.24%
  Riboflavin Tetrabutyrate: 70.22%
[1]; [8]
  Other Impurities: 20.58%
  Riboflavin: 7.52%
  Riboflavin Tetrabutyrate: 71.90%
[1]; [9]
  Other Impurities: 19.8%
  Riboflavin: 8.92%
  Riboflavin Tetrabutyrate: 71.30%
Porcine corneas
  stress using strain, treated vs untreated corneas: greater in the treated corneas
[2]; Sample C1, 25° C., HP-β-CD 10%, pH 5.0
  Solubility: 8 ng/mL (≈ 12.2 nM)
[2]; Sample C2, 25° C., HP-β-CD 10%, pH 5.5
  Solubility: 3 ng/mL (≈ 4.57 nM)
[2]; Sample C3, 25° C., HP-β-CD 10%, pH 6.0
  Solubility: 4 ng/mL (≈ 6.09 nM)
[2]; Sample C4, 25° C., without HP-β-CD, pH 5.0
  Solubility: 8 ng/mL (≈ 12.2 nM)
[2]; Sample C5, 25° C., without HP-β-CD, pH 5.5
  Solubility: 1 ng/mL (≈ 1.52 nM)
[2]; Sample C6, 25° C., without HP-β-CD, pH 6.0
  Solubility: 2 ng/mL (≈ 3.05 nM)
[3]; [10]
  RTB 0 hr: 98.76%
  RTB 1 Month: 98.71%
  RTB 14 Days: 98.76%
  Impur. 0 hr: 1.16%
  Impur. 1 Month: 1.15%
  Impur. 14 Days: 1.16%
[3]; [11]
  RTB 0 hr: 98.85%
  RTB 1 Month: 99.05%
  RTB 14 Days: 98.94%
  Impur. 0 hr: 1.14%
  Impur. 1 Month: 0.95%
  Impur. 14 Days: 1.06%
[3]; [12]
  RTB 0 hr: 98.87%
  RTB 1 Month: 98.99%
  RTB 14 Days: 98.92%
  Impur. 0 hr: 1.13%
  Impur. 1 Month: 1.02%
  Impur. 14 Days: 1.07%
